Assay [1] has as its target DNA-dependent protein kinase catalytic subunit (Homo sapiens, UniProt P78527). Put plainly: Inhibition of human DNA-PK catalytic subunit at 10 uM using DNA and [EPPLSQEAFADLWKK] peptide substrate by HTRF assay. In general terms: TR-FRET usually uses a lanthanide donor and a delayed reading to cut background.
For assay [2], the target named is T1, cGMP-inhibited 3',5'-cyclic phosphodiesterase 3A (Homo sapiens, UniProt Q14432). Put plainly: Inhibition of human PDE3A at 10 uM by HTRF assay.
Assay [3] concerns the target Phosphatidylinositol 4,5-bisphosphate 3-kinase catalytic subunit alpha isoform (Homo sapiens) (UniProt P42336). Put plainly: Inhibition of wild type PI3K-alpha (unknown origin) assessed as decrease in ATP consumption at 10 uM using phosphotidylinositol bisphosphate and ATP measured after 60 mins by Kinase-Glo reagent based luminescence assay. For orientation: Kinase-Glo reads ATP consumption through a luciferase reaction.

The target of assay [4] is Phosphatidylinositol 4,5-bisphosphate 3-kinase catalytic subunit beta isoform (Homo sapiens) (UniProt P42338). Put plainly: Inhibition of wild type PI3K-beta (unknown origin) assessed as decrease in ATP consumption at 10 uM using phosphotidylinositol bisphosphate and ATP measured after 60 mins by Kinase-Glo reagent based luminescence assay.
For assay [5], the target named is Phosphatidylinositol 4,5-bisphosphate 3-kinase catalytic subunit gamma isoform (Homo sapiens) (UniProt P48736). Description: Inhibition of wild type PI3K-gamma (unknown origin) assessed as decrease in ATP consumption at 10 uM using phosphotidylinositol bisphosphate and ATP measured after 60 mins by Kinase-Glo reagent based luminescence assay.
In assay [6] the target is T2, Phosphatidylinositol 4,5-bisphosphate 3-kinase catalytic subunit delta isoform (Homo sapiens) (UniProt O00329).
T2 sequence (whole entry): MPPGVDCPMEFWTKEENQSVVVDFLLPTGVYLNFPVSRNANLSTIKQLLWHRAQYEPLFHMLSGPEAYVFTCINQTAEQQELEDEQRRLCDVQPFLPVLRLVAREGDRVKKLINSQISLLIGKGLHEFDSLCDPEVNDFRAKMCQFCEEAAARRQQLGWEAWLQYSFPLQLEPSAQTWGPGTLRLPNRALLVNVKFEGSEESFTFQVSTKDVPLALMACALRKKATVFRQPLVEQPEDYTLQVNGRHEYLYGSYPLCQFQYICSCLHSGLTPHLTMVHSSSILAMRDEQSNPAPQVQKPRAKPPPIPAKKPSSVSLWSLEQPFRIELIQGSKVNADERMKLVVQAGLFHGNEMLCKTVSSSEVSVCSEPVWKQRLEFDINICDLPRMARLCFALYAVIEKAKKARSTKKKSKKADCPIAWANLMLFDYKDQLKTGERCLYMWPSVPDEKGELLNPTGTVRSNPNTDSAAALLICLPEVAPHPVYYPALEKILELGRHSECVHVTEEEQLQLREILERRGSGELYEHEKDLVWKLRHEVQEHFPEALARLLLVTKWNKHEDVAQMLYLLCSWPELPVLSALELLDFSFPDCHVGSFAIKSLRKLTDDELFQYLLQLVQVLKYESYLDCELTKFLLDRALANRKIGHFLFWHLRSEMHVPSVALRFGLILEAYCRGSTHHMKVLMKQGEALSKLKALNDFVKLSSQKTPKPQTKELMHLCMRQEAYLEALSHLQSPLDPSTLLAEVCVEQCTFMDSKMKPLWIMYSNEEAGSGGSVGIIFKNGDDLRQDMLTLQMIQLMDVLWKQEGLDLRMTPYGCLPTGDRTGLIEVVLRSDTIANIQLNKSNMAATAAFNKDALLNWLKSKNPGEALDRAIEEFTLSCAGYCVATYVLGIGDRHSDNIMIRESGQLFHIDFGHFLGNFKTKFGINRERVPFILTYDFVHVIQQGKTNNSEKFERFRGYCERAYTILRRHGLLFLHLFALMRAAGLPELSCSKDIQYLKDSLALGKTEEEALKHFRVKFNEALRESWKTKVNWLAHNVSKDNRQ
Put plainly: Inhibition of wild type PI3K-delta (unknown origin) assessed as decrease in ATP consumption at 10 uM using phosphotidylinositol bisphosphate and ATP measured after 60 mins by Kinase-Glo reagent based luminescence assay.

The target of assay [7] is T3, Phosphatidylinositol 4,5-bisphosphate 3-kinase catalytic subunit delta isoform (Homo sapiens, UniProt O00329).
T3 sequence (O00329 whole entry): T2 sequence (whole entry)
Put plainly: Inhibition of wild type PI3K-delta (unknown origin) assessed as decrease in ATP consumption using phosphotidylinositol bisphosphate and ATP measured after 60 mins by Kinase-Glo reagent based luminescence assay.

Assay [8] has as its target T1, cGMP-inhibited 3',5'-cyclic phosphodiesterase 3A. Description: Inhibition of human PDE3A by HTRF assay.
Another assay has as its system Platelet. Description: Inhibition of platelet aggregation in human platelet-rich plasma pre-incubated for 5 mins before ADP stimulation for 10 mins. It counts as functional, cell-based.

Results on 16 molecules are retold here after ChEMBL document CHEMBL4043200, “Synthesis and biological evaluation of 8-aryl-2-morpholino-7-O-substituted benzo[e][1,3]oxazin-4-ones against DNA-PK, PI3K, PDE3A enzymes and platelet aggregation” (Bioorg Med Chem, 2017).

As usually defined, the inhibition is the drop in the measured response relative to a control, in per cent. Usually IC50 stands for the concentration that gives 50% inhibition.

Sequence of Phosphatidylinositol 4,5-bisphosphate 3-kinase catalytic subunit alpha isoform (Homo sapiens) (P42336 whole entry, canonical isoform): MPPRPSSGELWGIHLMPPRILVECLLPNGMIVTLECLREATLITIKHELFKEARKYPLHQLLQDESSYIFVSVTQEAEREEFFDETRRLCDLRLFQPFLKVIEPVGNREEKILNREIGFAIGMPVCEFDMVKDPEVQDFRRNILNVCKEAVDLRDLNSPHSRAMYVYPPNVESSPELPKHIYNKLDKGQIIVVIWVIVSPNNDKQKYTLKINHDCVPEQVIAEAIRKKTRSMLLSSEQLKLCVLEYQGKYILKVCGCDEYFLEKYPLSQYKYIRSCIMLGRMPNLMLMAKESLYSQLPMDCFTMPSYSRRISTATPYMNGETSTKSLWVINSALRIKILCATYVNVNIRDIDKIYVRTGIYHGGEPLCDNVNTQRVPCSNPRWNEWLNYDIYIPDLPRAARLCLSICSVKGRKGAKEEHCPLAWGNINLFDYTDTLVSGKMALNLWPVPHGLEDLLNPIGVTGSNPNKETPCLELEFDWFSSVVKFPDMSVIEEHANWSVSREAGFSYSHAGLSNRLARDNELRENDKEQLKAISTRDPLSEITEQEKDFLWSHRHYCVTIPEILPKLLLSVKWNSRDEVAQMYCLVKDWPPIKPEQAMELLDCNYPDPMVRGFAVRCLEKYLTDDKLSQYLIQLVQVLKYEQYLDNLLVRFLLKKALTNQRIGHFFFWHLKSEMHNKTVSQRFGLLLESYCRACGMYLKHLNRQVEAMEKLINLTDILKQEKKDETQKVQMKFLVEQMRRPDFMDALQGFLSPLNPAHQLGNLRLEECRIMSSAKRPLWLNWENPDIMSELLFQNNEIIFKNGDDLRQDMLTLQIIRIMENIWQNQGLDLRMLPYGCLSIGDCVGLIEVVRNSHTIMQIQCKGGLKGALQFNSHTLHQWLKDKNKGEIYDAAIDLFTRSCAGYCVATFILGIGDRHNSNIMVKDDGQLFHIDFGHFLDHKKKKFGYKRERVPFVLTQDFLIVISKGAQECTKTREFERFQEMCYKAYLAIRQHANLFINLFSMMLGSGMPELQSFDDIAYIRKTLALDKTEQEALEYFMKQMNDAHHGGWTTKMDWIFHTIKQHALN
Sequence of Phosphatidylinositol 4,5-bisphosphate 3-kinase catalytic subunit gamma isoform (Homo sapiens) (P48736 whole entry, looked up, canonical isoform): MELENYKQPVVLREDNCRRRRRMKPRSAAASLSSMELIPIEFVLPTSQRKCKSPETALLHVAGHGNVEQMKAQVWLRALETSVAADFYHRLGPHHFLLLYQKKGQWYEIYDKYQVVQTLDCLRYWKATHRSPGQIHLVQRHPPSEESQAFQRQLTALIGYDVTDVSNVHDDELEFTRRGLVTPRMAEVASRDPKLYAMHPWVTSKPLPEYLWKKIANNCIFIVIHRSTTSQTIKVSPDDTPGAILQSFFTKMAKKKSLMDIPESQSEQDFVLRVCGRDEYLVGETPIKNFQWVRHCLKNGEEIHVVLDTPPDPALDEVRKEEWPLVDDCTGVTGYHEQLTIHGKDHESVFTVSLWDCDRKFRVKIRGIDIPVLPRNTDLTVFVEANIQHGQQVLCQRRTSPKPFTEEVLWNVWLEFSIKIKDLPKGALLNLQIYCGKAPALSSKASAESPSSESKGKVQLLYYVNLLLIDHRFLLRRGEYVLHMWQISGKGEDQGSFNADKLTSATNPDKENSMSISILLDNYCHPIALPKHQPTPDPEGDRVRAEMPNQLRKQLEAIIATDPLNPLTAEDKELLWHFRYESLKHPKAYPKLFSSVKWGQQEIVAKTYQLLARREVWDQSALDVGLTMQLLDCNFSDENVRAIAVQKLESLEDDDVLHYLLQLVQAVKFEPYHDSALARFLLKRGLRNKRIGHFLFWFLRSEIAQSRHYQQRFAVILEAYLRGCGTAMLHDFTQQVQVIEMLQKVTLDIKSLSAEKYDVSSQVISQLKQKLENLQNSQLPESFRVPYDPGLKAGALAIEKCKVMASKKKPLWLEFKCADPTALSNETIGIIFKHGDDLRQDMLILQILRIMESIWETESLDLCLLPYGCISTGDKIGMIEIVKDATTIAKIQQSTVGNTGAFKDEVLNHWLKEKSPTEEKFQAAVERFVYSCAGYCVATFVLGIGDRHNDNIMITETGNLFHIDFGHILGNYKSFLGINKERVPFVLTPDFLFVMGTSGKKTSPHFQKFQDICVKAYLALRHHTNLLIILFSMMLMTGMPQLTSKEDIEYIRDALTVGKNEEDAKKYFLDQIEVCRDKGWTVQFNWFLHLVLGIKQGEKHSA
T1 sequence (Q14432 whole entry, canonical isoform): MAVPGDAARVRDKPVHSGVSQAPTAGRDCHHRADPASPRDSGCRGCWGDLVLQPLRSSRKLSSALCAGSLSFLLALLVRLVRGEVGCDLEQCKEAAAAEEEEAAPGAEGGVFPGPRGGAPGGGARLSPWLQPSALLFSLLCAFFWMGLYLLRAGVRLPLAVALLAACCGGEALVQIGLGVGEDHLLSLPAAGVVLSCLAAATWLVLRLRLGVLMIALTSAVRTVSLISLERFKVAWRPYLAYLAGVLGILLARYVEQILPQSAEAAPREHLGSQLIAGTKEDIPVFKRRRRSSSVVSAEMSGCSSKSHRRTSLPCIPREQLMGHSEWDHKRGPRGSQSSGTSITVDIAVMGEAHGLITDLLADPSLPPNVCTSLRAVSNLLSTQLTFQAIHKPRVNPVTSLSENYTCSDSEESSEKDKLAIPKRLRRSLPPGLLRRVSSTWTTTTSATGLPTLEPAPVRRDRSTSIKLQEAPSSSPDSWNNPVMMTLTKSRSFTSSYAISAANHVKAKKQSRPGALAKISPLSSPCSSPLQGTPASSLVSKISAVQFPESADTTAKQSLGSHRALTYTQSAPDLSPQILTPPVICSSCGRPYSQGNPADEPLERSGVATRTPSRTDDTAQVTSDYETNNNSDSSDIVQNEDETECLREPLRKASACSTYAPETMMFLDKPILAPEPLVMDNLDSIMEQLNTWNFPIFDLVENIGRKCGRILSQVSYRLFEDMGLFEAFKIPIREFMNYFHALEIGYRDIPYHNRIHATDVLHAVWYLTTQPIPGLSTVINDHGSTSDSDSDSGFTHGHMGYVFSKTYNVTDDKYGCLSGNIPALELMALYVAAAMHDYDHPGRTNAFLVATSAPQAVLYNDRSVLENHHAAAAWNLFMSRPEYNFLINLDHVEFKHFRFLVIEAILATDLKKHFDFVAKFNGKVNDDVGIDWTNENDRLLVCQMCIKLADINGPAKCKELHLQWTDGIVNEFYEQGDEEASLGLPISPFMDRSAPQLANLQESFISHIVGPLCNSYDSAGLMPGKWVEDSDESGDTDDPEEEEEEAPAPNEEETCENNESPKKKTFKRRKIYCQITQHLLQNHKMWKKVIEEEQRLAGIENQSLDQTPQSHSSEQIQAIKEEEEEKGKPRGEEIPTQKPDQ
Sequence of Phosphatidylinositol 4,5-bisphosphate 3-kinase catalytic subunit beta isoform (Homo sapiens) (P42338 whole entry, looked up, canonical isoform): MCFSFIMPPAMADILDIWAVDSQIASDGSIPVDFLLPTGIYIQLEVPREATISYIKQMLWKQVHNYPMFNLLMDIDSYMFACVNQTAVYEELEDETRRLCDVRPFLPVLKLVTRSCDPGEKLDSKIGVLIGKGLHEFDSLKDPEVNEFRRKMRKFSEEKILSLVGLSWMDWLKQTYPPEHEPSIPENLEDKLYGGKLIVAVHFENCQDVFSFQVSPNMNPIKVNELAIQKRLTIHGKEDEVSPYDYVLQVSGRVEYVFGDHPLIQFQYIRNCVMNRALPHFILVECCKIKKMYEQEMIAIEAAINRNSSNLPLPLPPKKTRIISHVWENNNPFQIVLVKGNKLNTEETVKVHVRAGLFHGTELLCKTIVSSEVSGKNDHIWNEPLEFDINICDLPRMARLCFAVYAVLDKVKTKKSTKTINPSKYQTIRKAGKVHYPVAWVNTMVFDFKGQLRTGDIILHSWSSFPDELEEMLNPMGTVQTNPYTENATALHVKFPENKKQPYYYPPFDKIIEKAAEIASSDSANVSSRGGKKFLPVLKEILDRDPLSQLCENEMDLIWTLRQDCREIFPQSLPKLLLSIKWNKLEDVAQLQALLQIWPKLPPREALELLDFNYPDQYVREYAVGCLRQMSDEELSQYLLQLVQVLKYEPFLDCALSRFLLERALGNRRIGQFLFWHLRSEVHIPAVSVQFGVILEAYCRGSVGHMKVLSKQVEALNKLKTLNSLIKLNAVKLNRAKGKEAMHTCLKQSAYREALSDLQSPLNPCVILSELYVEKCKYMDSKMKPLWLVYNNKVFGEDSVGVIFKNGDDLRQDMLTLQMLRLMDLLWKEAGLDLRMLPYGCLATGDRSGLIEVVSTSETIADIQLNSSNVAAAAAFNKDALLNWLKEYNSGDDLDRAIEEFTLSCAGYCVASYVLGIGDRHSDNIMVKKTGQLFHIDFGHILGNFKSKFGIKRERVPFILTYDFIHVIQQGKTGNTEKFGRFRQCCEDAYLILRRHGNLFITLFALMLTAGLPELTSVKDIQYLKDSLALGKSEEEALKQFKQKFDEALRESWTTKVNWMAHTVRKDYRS

In the case of `COc1ccc(-c2c(OCc3ccccn3)ccc3c(=O)nc(N4CCOCC4)oc23)cc1`, the inhibition in assay [1] turned out to be 33.8%; in assay [2] it was 50.4%; in assay [3], 28.9%; in assay [4] it was 42.9%; in assay [5], 12.6%; in assay [6] it was 85.4%. Further, in [7], the IC50 was 2.7 µM.

In the case of `COc1ccc(-c2c(OCCN3CCN(C)CC3)ccc3c(=O)nc(N4CCOCC4)oc23)cc1`, the inhibition in assay [1] was 18.1%; in assay [2], 11.5%; in assay [3] it was 40.3%; in assay [4] it was 44.8%; in assay [5], 6.23%; in assay [6], 73.9%. In [7], the half-inhibitory concentration (IC50) was 5.68 µM.

On to `O=c1nc(N2CCOCC2)oc2c(-c3cccs3)c(OCc3ccccn3)ccc12`, for which the inhibition in assay [1] was 40.1%; in [2] it was 74.5%; in assay [3] it was -0.6%; in assay [4], 4.1%; in assay [5], 0.1%; in assay [6], 21.8%. In assay [8], this molecule yielded an IC50 of 2.95 µM.

For the molecule `O=c1nc(N2CCOCC2)oc2c(-c3ccc(Cl)cc3)c(OCc3cccnc3)ccc12`, the inhibition in assay [1] is 32.7%; in assay [2], 43.6%; in assay [3] it was 34.6%; in assay [4] it was 53.2%; in assay [5] it was 20%; in assay [6], 64.9%. Further, the half-inhibitory concentration (IC50) in [7] was found to be 10.1 µM.

As to `O=c1nc(N2CCOCC2)oc2c(-c3ccccc3)c(OCc3ccccn3)ccc12`, the inhibition in [1] amounted to 25.7%; in [2], 71.3%; in assay [3] it was 59.2%; in assay [4] it was 66.4%; in assay [5], 38.1%; in [6], 88.9%. Moreover, the results for the IC50 in assay [8] and in [7] were 2.75 µM and 4 µM, respectively.

With `O=c1nc(N2CCOCC2)oc2c(-c3ccc(Cl)cc3)c(OCc3ccccn3)ccc12`, the inhibition worked out at 27% in assay [1]; 63.3% in [2]; 28.6% in assay [3]; 48.8% in assay [4]; 23.5% in assay [5]; 62.1% in [6]. Besides, the IC50 in assay [7] amounted to 14.7 µM.

On to `O=c1nc(N2CCOCC2)oc2c(-c3ccccc3)c(OCc3cccnc3)ccc12`, for which the IC50 was found to be 80 µM with Platelet and 7.2 µM in assay [7]. Also, the inhibition in [1] is 18%; in assay [2], 50.4%; in assay [3] it was 57.9%; in [4], 64.4%; in [5], 25.7%; in [6], 85.5%.

Regarding `O=c1nc(N2CCOCC2)oc2c(-c3ccsc3)c(OCc3ccccn3)ccc12`, the inhibition in assay [1] is 39.7%; in [2] it was 88.8%; in assay [3] it was -8.1%; in [4] it was -3%; in assay [5], 4.4%; in assay [6], 18%. Besides, the IC50 in [8] was found to be 3.05 µM.

Take `COc1ccc(-c2c(OCCBr)ccc3c(=O)nc(N4CCOCC4)oc23)cc1`: the inhibition was 44.4% in assay [1]; 28% in assay [2]; 56.3% in assay [3]; 39.7% in [4]; -8.6% in assay [5]; 88.8% in assay [6]. Further, the IC50 in [7] stood at 2.7 µM.

With `O=c1nc(N2CCOCC2)oc2c(-c3ccc(Cl)cc3)c(OCc3ccncc3)ccc12`, the inhibition in assay [1] is 21.5%; in assay [2], 56.1%; in assay [3] it was 28.7%; in assay [4], 56.6%; in assay [5], 26.5%; in [6], 63.3%. In addition, the IC50 in [7] turned out to be 9.2 µM.

Take `O=c1nc(N2CCOCC2)oc2c(-c3cc4ccccc4s3)c(OCc3ccccn3)ccc12`: the inhibition was 47.2% in assay [1], 77.9% in assay [2], -1% in assay [5] and 24.6% in assay [6]. In addition, the midpoint of inhibition in assay [8], the IC50, lay at 3.01 µM.

Take `CC(C)Cn1c(=O)n(C)c(=O)c2[nH]cnc21` [ISOBUTYLMETHYLXANTHINE]: in assay [8], the IC50 came out at 7 µM.

Molecule `CN1CCN(CCOc2ccc3c(=O)nc(N4CCOCC4)oc3c2-c2ccccc2)CC1` registered an IC50 in the assay with Platelet of 10 µM. Further, the inhibition was found to be 9.8% in [1]; 11.4% in assay [2]; 24% in assay [3]; 31.8% in [4]; 4.3% in [5]; 53.4% in assay [6].

For the molecule `COc1ccc(-c2c(OCc3cccnc3)ccc3c(=O)nc(N4CCOCC4)oc23)cc1`, the inhibition in assay [1] is 33.5%; in assay [2] it was 29.8%; in assay [3], 30%; in assay [4] it was 39.3%; in [5], -2.2%; in assay [6], 87.8%. Also, the IC50 in assay [7] amounted to 2.8 µM.

`O=c1nc(N2CCOCC2)oc2c(-c3cc4ccccc4s3)c(OCc3cccnc3)ccc12`: the inhibition in [1] was 8.9%; in assay [2] it was 56.4%; in assay [3], 2.6%; in [4] it was 18.1%; in assay [5], -8.1%; in assay [6], 75.6%. Besides, in assay [7], the IC50 turned out to be 2.7 µM.

`O=c1nc(N2CCOCC2)oc2c(-c3ccccc3)c(OCc3ccncc3)ccc12`: the inhibition in assay [1] stood at 15.1%; in assay [2] it was 60.1%; in [3] it was 46.1%; in assay [4] it was 68.1%; in [5], 8.2%; in assay [6] it was 80.8%. The IC50 in assay [7] came to 5.8 µM.
